In patent publication US20240269308A1, “PRODRUGS OF TOPOISOMERASE I INHIBITOR FOR ADC CONJUGATIONS AND METHODS OF USE THEREOF” (priority 2022, published 2024):
Like-named read-outs stand apart in the source and are kept apart here.

How the values were obtained:
[1] = M3385 metabolism in human liver S9 without cofactors NADPH and UDPGA; assay type: in vitro ADME; details: 240 min
Source text: (§1) Briefly, hepatocytes are complete liver cells, containing various first-phase and second-phase enzymes that can mediate various metabolic reactions; therefore, it is a better in vitro model to test metabolites. Liver S9 is the supernatant obtained by grinding and centrifuging the liver cells. The enzymes content is lower compared to Hepatocytes. It mainly contains CYP enzymes and some biphasic enzymes (but no biphasic coenzyme), so additional coenzyme (NADPH and UDPGA, etc.) is needed to mediate the biphasic reaction.
(§2) Assay buffer: 100 mM potassium phosphate buffer (K+/Mg2+ buffer, pH7.4):
(§3) The initial stock of liver S9 was diluted in K+/Mg^2+ buffer, pH 7.4 from 20 mg/ml to 2× Liver S9 (2 mg/mL) with alamethicin (50 μg/mL):
(§4) 2×LS9/compound M3385 solution was prepared.
(§5) Time zero/T0: 199 μL 2 mg/mL liver S9 solution; 100 μL of 8 mM NADPH solution; 100 μL of 20 mM UDPGA solution; and 1200 μL of ACN were added, vortexed at 1000 rpm for 5 min, then 1 μL of 4 mM test compound solution was added.
(§6) T240-without a co-factor: 199 μL 2 mg/mL liver S9 solution and 200 μL of buffer were added. The T240-w/o sample was prewarmed at 37° C. for 5 min and 1 μL of 4 mM test compound solution was added. After 240 min incubation, 1200 μL of ACN was added and then vortexed at 1000 rpm for 5 min.
(§7) Protein precipitation: quenched samples were centrifuged at 14000 rpm for 5 min.
(§8) Sample preparation: an aliquot of 1200 μL of the supernatant was evaporated under N2 stream until dry. Dried extracts were reconstituted with 200 μL of 25% aqueous ACN, vortexed for 2 minutes, centrifuged at 14000 rpm for 5 min, and then 3 μL of reconstituted supernatant were injected for LC-UV-MS analysis.

[2] = M3385 metabolism in human liver S9 with NADPH and UDPGA; assay type: in vitro ADME; details: M3385 incubated in human liver S9 with NADPH and UDPGA, 240 min; single peak (parent or metabolite)
Source text: as §1
The metabolism of model compound M3385 was evaluated in human liver S9 with NADPH and UDPGA as follows:
as §2, §3, §4, §5
as §6, with “T240 with” for “T240-without”, “solution; 100” for “solution and 200”, “8 mM NADPH solution; and 100 μL of 20 mM UDPGA solution” for “buffer”, “T240” for “T240-w/o”
as §7, §8

[3] = Mouse whole blood stability test; assay type: in vitro ADME
Method: In vitro stability of Linker-Prodrug in mouse whole blood Scheme 15. Metabolism of LP1 (M2980) in whole blood.
Stock solution of test compound was provided in 100% DMSO. The stock solution for each compound was diluted into 500 μM with mixture of 50% acetonitrile, then diluted into mouse blood to achieve a final concentration of 1.0 μM. 1.0 μM of test compound in duplicate was incubated in blood at 37° C. Aliquots of 50 uL sample was collected at 0, 15, 30, 60, 120, 240, 480 min, and 24 hours. Reactions were terminated at various time points (0, 15, 30, 60, 120, 240, 480 min, 24 hours) by adding 200 μL of ice-cold acetonitrile containing internal standard with 1% formic acid and then ultrasound for 30 seconds. Plate was centrifuged (4000 rpm, 15 min). 50 μL of supernatants were transferred into a daughter plate containing 200 μL of H2O in each well. The samples were mixed well and analyzed with UPLC-MS/MS.
A Waters liquid chromatographic system was used. Detection was performed on AP14000 Q-Trap and AP15500 mass spectrometer equipped with TurbolonSpray (ESI) Interface (Applied Biosystems, Concord, Ontario, Canada). Analyst 1.5 and 1.6.2 software packages (Applied Biosystems) were used to control the LC-MS/MS system, as well as for data acquisition and processing.
Chromatographic separation was achieved on the Wates BEH C18 column (50*2.1 mm ID, 1.7 μm). The column temperature was maintained at ambient temperature (25° C.). The flow rate was maintained at 0.6 mL/min and the following mobile phases were used: water (0.1% formic acid, v/v) (phase A) and acetonitrile (0.1% formic acid, v/v) (phase B).
Test compounds (1.0 μM) were incubated in blood at 37° C. in duplicate. Aliquots of 50 uL sample was collected at 0, 15, 30, 60, 120, 240, 480 min, and 24 hours. Reactions were terminated at various time points (0, 15, 30, 60, 120, 240, 480 min, 24 hours by adding 200 μL of ice-cold acetonitrile containing internal standard with 1% formic acid, then ultrasound for 30 seconds. The plate was centrifuged (4000 rpm, 15 min). 50 μL of supernatants were transferred into a daughter plate containing 200 μL of water in each well. Samples were mixed well and analyzed with UPLC-MS/MS.
The % was calculated based on initial 1 uM as 100% and the standard concentration curve.

JIMT-1 = assay: in vitro cell killing activity, JIMT-1 cells (CellTiter Glo viability); assay type: cell-based; details: JIMT-1 cells; for IC50: Homo sapiens, read-out: JIMT-1 IC50
Method: (§9) Serial dilutions of free drug in 100% DMSO (1:4 10 pts starting from 100 uM) were prepared. Serially diluted payload was transferred into Opti-Mem with 0.1% BSA (10 uL into 990 uL media). Serial dilutions of ADCs/isotype controls at 1:4 in Opti-Mem with 0.1% BSA (starting from 5×1000 nM) were prepared. 20ul assay media diluted ADC/isotype conjugates as well as free drug were transferred to above cells. The plates were incubated at 37° C., 5% CO2 for 6 days. Plates were developed by adding 100ul CellTiter Glo 2.0. RT 5-10 min. Plates were read with Envision plate reader. Data was analyzed using Prism. Only inner 60 well are used for the assay. The edge wells were filled with media to prevent dry out.

NCI-H1975 cells = assay: anti-Her2 viability assay, NCI-H1975 cells (target negative); assay type: cell-based; details: NCI-H1975 target negative cells, 6 days; for IC50: Homo sapiens, 144 h, read-out: H1975 IC50
Method: (§10) The anti-Her2 viability assay protocol is following.
(§11) 0.1% BSA was added to the Opti-MEM reduced serum media [Gibco, cat #31985-070]. This assay media was used for the dilution of ADC and free drug.
(§12) Cells were seeded in their growth media into 96 well plates (Thermo #136101) one day prior to adding ADCs: 1000/well SKBR3 cells in 80 uL media (target positive cells), 1000/well NCI-N87 cells in 80 uL media (target positive cells), 1000/well Calu-3 in 80 uL media (target positive cells), and 800/well NCI-H1975 cells in 80ul media (target negative cells).
as §9

SK-BR-3 cells = assay: SKBR3 cell-based anti-proliferation / viability assay (CellTiter-Glo); parameters: species or system human; details: for EC50: Homo sapiens, SK-BR-3, read-out: SKBR3 EC50; for SKBR3 % Kill: SKBR3 target positive cells, 6 days
Method: as §10, §11, §12, §9
The cell line used in the anti-proliferation assays was SK-BR-3, a human breast, adenocarcinoma (pleural effusion) cell line; The cells were grown in McCoy's 5a Medium+10% FBS. To run the assay, the cells (80 μl, 1000 cells) were added to each well in a 96-well plate and incubated for 24 hours at 37° C. with CO2. Next, the cells were treated with test compounds (20 μl) at various concentrations in appropriate cell culture medium (total volume, 0.1 mL). The control wells contain cells and the medium but lack the test compounds. The plates were incubated for 144 hours at 37° C. with CO2. CTG reagent was then added to the wells (100 μl). After the plates were shaken for 10 min and then incubated for 10 min at room temperature, paste the clear bottom with white back seal and record luminescence with Envision. The inhibition % was calculated according to the following equation: inhibition %=[1-(assay-blank)/(control-blank)]×100.

in vitro = details: human, plasma
Calu-3 = assay: anti-Her2 viability assay, Calu-3 cells (target positive); assay type: cell-based; details: Calu-3 target positive cells, 6 days; for IC50: Homo sapiens, 144 h, read-out: Calu-3 IC50
Method: as §10, §11, §12, §9

NCI-N87 cells = assay: anti-Her2 viability assay, NCI-N87 cells (target positive); assay type: cell-based; details: NCI-N87 target positive cells, 6 days; for IC50: Homo sapiens, 144 h, read-out: N87 IC50
Method: as §10, §11, §12, §9

[4] = whole blood, mouse blood, read-out: Mouse blood stability T1/2 (converted)

In the case of CC[C@@](O)(C(=O)O)c1cc2n(c(=O)c1CO)Cc1c-2nc2cc(F)c(C)c3c2c1[C@@H](NC(=O)COCNC(=O)CN)CC3 [MP1R], the “Relative UV Abundance* (%)” value ([1]; M3385 incubated in human liver S9 without NADPH and UDPGA, single peak (parent or metabolite)) is reported as 0.38% and the “Relative UV Abundance* (%)” value [2] is reported as 0.29%.

In the case of CC[C@@]1(O)C(=O)OCc2c1cc1n(c2=O)Cc2c-1nc1cc(F)c(C)c3c1c2[C@@H](NC(=O)COCNC(=O)CN)CC3 [MP1], the “Relative UV Abundance* (%), group total” value ([1]; human, 10 μM, pH 7.4) is reported as 4.93%.

With CC[C@@]1(O)C(=O)OCc2c1cc1n(c2=O)Cc2c-1nc1cc(F)c(C)c3c1c2[C@@H](NC(=O)COCNC(=O)[C@@H](N)CO)CC3 [P2, (2S)-2-amino-N-[({[(10S,23S)-10-ethyl-18-fluoro-10-hydroxy-19-methyl-5,9-dioxo-8-oxa-4,15-diazahexacyclo[14.7.1.0^2,14.0^4,13.0^6,11.0^20,24]tetracosa-1,6(11),12,14,16,18,20(24)-heptaen-23-yl]carbamoyl}methoxy)methyl]-3-hydroxypropanamide] the half-life at 1 μM ([3]; mouse, blood) was 2.5 h, the “Mouse blood stability % Remaining at 24 h” value ([3]; mouse, blood, 1 μM) was 34.1% and the IC50 (JIMT-1) was 23.8 nM. For the same compound, the “JIMT-1 % Kill” value (JIMT-1) was 92.7%, the IC50 (NCI-H1975 cells) was 19.9 nM and the “H1975 % Kill” value (NCI-H1975 cells) was 98.0%. For the same compound, the EC50 (SK-BR-3 cells) was 5.89 nM, the “SKBR3 % Kill” value (SK-BR-3 cells) was 97.0% and the half-life (in vitro) was 65.4 h. The “Calu-3 % Kill” value (Calu-3) was 93.2%, the IC50 (Calu-3) was 5.68 nM and the IC50 (NCI-N87 cells) was 8.93 nM. The “N87 % Kill” value (NCI-N87 cells) was 98.4% and the “Human plasma stability % Remaining at 24 h” value was 80.4%.

For CC[C@@]1(O)C(=O)OCc2c1cc1n(c2=O)Cc2c-1nc1cc(F)c(C)c3c1c2[C@@H](NC(=O)COCNC(=O)[C@@H](N)CCC(N)=O)CC3 [P3, (2S)-2-amino-N-[({[(10S,23S)-10-ethyl-18-fluoro-10-hydroxy-19-methyl-5,9-dioxo-8-oxa-4,15-diazahexacyclo[14.7.1.0^2,14.0^4,13.0^6,11.0^20,24]tetracosa-1,6(11),12,14,16,18,20(24)-heptaen-23-yl]carbamoyl}methoxy)methyl]pentanediamide], the half-life at 1 μM ([3]; mouse, blood) was 1 h, the “Mouse blood stability % Remaining at 24 h” value ([3]; mouse, blood, 1 μM) was 6.5% and the IC50 (JIMT-1) was 88.6 nM. The “JIMT-1 % Kill” value (JIMT-1) was 81.3%, the IC50 (NCI-H1975 cells) was 54.5 nM and the “H1975 % Kill” value (NCI-H1975 cells) was 88.5%. The EC50 (SK-BR-3 cells) was 11.6 nM, the “SKBR3 % Kill” value (SK-BR-3 cells) was 94.3% and the half-life (in vitro) was 24.1 h. The “Calu-3 % Kill” value (Calu-3) was 90.7%, the IC50 (Calu-3) was 15.9 nM and the IC50 (NCI-N87 cells) was 30.4 nM. The “N87 % Kill” value (NCI-N87 cells) was 95.5% and the “Human plasma stability % Remaining at 24 h” value was 48.9%.

With CC[C@@]1(O)C(=O)OCc2c1cc1n(c2=O)Cc2c-1nc1cc(F)c(C)c3c1c2[C@@H](NC(=O)COCNC(=O)[C@@H](N)CCC(=O)O)CC3 [P4, (4S)-4-amino-4-{[({[(10S,23S)-10-ethyl-18-fluoro-10-hydroxy-19-methyl-5,9-dioxo-8-oxa-4,15-diazahexacyclo[14.7.1.0^2,14.0^4,13.0^6,11.0^20,24]tetracosa-1,6(11),12,14,16,18,20(24)-heptaen-23-yl]carbamoyl}methoxy)methyl]carbamoyl}butanoic acid] the “Mouse blood stability % Remaining at 24 h” value ([3]; mouse blood) was 66.1%, the half-life at 1 μM [3, 4] was 9.2 h and the IC50 (JIMT-1) was 20.7 nM. For the same compound, the “JIMT-1 % Kill” value (JIMT-1) was 92.0%, the IC50 (NCI-H1975 cells) was 24.1 nM and the “H1975 % Kill” value (NCI-H1975 cells) was 96.8%. The EC50 (SK-BR-3 cells) was 6.63 nM, the “SKBR3 % Kill” value (SK-BR-3 cells) was 96.6% and the half-life (Human plasma stability) was 107 h. The “Human plasma stability % Remaining at 24 h” value (Human plasma stability) was 90.4%, the “Calu-3 % Kill” value (Calu-3) was 93.7% and the IC50 (Calu-3) was 5.67 nM. The IC50 (NCI-N87 cells) was 9.84 nM and the “N87 % Kill” value (NCI-N87 cells) was 97.7%.

With CC[C@@]1(O)C(=O)OCc2c1cc1n(c2=O)Cc2c-1nc1cc(F)c(C)c3c1c2[C@@H](NC(=O)COCNC(=O)[C@@H](N)Cc1ccccc1)CC3 [P7, (2S)-2-amino-N-[({[(10S,23S)-10-ethyl-18-fluoro-10-hydroxy-19-methyl-5,9-dioxo-8-oxa-4,15-diazahexacyclo[14.7.1.0^2,14.0^4,13.0^6,11.0^20,24]tetracosa-1,6(11),12,14,16,18,20(24)-heptaen-23-yl]carbamoyl}methoxy)methyl]-3-phenylpropanamide] the “Mouse blood stability % Remaining at 24 h” value ([3]; mouse blood) was 6.3%, the half-life at 1 μM [3, 4] was 0.2 h and the IC50 (JIMT-1) was 13.2 nM. For the same compound, the “JIMT-1 % Kill” value (JIMT-1) was 93.4%, the IC50 (NCI-H1975 cells) was 8.96 nM and the “H1975 % Kill” value (NCI-H1975 cells) was 98.8%. The EC50 (SK-BR-3 cells) was 1.98 nM, the “SKBR3 % Kill” value (SK-BR-3 cells) was 97.0% and the half-life (Human plasma stability) was 24.4 h. For the same compound, the “Human plasma stability % Remaining at 24 h” value (Human plasma stability) was 51.3%, the “Calu-3 % Kill” value (Calu-3) was 93.7% and the IC50 (Calu-3) was 3.32 nM. For the same compound, the IC50 (NCI-N87 cells) was 4.41 nM.
